Experimental data reported in a melting point compilation (Tetko et al.).
Non-standard residues stand in square brackets, D forms with d. Residues, ends and D or L forms follow the SMILES beside them. *: point of attachment. pGlu = O=C1CC[C@@H](C(=O)O)N1; Cbz = O=C(OCc1ccccc1)*; Boc = CC(C)(C)OC(=O)*; OBn = c1ccc(CO*)cc1; azaGly = NNC(=O)O

In the case of `CCCCCCCCCCCCN(CCCCCCCCCCCC)c1ccc2c(c1)O/C(=C1\Oc3cc(N(CCCCCCCCCCCC)CCCCCCCCCCCC)ccc3C1=O)C2=O`, the melting point is reported as 105 °C. Work on `CCCCCCCCCCCCCCCCCCSc1nc(SCCCCCCCCCCCCCCCCCC)nc(-c2cc(C(C)(C)C)c(O)c(C(C)(C)C)c2)n1` yielded a melting point of 87 to 89 °C. With `CC(C)(C1CCC(OCC(CN2C(C)(C)CC3(CC2(C)C)OCCO3)OC(=O)c2ccccc2)CC1)C1CCC(OCC(CN2C(C)(C)CC3(CC2(C)C)OCCO3)OC(=O)c2ccccc2)CC1` (configuration not stated) the melting point was 77 to 79 °C. Molecule `C=CCNc1nc(NC(C)(C)CC(C)(C)C)nc(N(CCCCCCN(c2nc(NCC=C)nc(NC(C)(C)CC(C)(C)C)n2)C2CC(C)(C)NC(C)(C)C2)C2CC(C)(C)NC(C)(C)C2)n1` has a melting point of 160 to 162 °C. With `CC(C)C[C@H](NC(=O)[C@@H](Cc1ccccc1)NC(=O)[C@H](Cc1ccc(O)cc1)NC(=O)[C@H](CO)NC(=O)[C@H](Cc1c[nH]c2ccccc12)NC(=O)[C@@H](Cc1ccccc1)NC(=O)[C@@H]1CCC(=O)N1)C(=O)N[C@@H](CCCNC(=N)N)C(=O)N1CCC[C@H]1C(=O)NNC(N)=O` ([pGlu][dF]WSY[dF]LRP[azaGly]-NH2) the melting point was 179 to 180 °C. Molecule `CCc1c(CCNC(=O)CCC(=O)CCC(=O)NCCc2ccc(OCc3ccccc3)c(OCc3ccccc3)c2CC)ccc(OCc2ccccc2)c1OCc1ccccc1` has a melting point of 188 to 192 °C. With `CCC(COC(=O)CCc1cc(C(C)(C)C)c(O)c(C(C)(C)C)c1)(COC(=O)CCc1cc(C(C)(C)C)c(O)c(C(C)(C)C)c1)COC(=O)CCc1cc(C(C)(C)C)c(O)c(C(C)(C)C)c1` the melting point was 66 to 79 °C. Work on `O=C(Cc1cc(I)c(Oc2cc(I)c(OCC3CO3)c(I)c2)c(I)c1)NC1CCCCC1` (configuration not stated) yielded a melting point of 242 °C. For `CSCCC(NC(=O)C(CCC(N)=O)NC(=O)OC(C)(C)C)C(=O)NC(C)C(=O)NC(C(=O)NC(CCCCNC(=O)OCc1ccccc1)C(=O)OCc1ccccc1)C(C)C` (configuration not stated) (Boc-QMAVK(Cbz)-OBn; configuration not given here), the melting point was 238 to 241 °C. In the case of `NC(=NC(=O)OCc1ccc([N+](=O)[O-])cc1)N(CCSSCCN(C(=O)OCc1ccc([N+](=O)[O-])cc1)C(N)=NC(=O)OCc1ccc([N+](=O)[O-])cc1)C(=O)OCc1ccc([N+](=O)[O-])cc1`, the melting point is reported as 165 °C. `CCCCCc1ccc(OCCCCCCOc2ccc(-c3ccc4c5c(c(C(=O)OCC)cc4c3)C=CC(c3ccccc3)(c3ccc(N4CCCCC4)cc3)O5)cc2)cc1` (configuration not stated) showed a melting point of 85 to 86 °C. In the case of `Cc1cccc(-c2sc(N)nc2-c2ccnc(-c3ccc(CN4CCOCC4)cc3)c2)n1`, the melting point is reported as 236 °C. `O=C1c2cc(Sc3ccc(Cl)cc3)c(Sc3ccc(Cl)cc3)cc2C(=O)c2c1c(O)c1cc(Sc3ccc(Cl)cc3)c(Sc3ccc(Cl)cc3)cc1c2O` showed a melting point of over 300 °C. With `CC(=O)OCC(CNC(=O)c1c(I)c(C(=O)NCC(COC(C)=O)OC(C)=O)c(I)c(N2CCCCC2=O)c1I)OC(C)=O` (configuration not stated) the melting point was 130 to 134 °C. `Cc1ccc(S(=O)(=O)N2CCN(S(=O)(=O)c3ccc(C)cc3)CCN(S(=O)(=O)c3ccc(C)cc3)CC(CC(C)C)N(S(=O)(=O)c3ccc(C)cc3)CCN(S(=O)(=O)c3ccc(C)cc3)CC2)cc1` (configuration not stated) gave a melting point of 142 to 145 °C. In the case of `COc1ccc([N+](=O)[O-])cc1C(/C=C/c1ccc(I)cc1)S(=O)(=O)C(/C=C/c1ccc(I)cc1)c1cc([N+](=O)[O-])ccc1OC` (configuration not stated), the melting point is reported as 218 to 221 °C. `CCCCN(c1nc(N(CCCC)C2CC(C)(C)N(OCC(C)(C)O)C(C)(C)C2)nc(N(CCCC)C2CC(C)(C)N(OCC(C)(C)O)C(C)(C)C2)n1)C1CC(C)(C)N(OCC(C)(C)O)C(C)(C)C1` gave a melting point of 172 to 176 °C. For `CC(C)[C@H](NC(=O)N(C)Cc1nccs1)C(=O)N[C@@H](Cc1ccccc1)[C@@H](O)[C@H](O)[C@H](Cc1ccccc1)NC(=O)[C@@H](NC(=O)N(C)Cc1nccs1)C(C)C`, the melting point was 176 to 178 °C. `CCCCCCCCCCCCCCCCCCOc1nc(OCCCCCCCCCCCCCCCCCC)nc(Oc2cc(-c3ccccc3)c(O)c(-c3ccccc3)c2)n1` showed a melting point of 33 °C. For `CCCCCCCCCCCCCCCCCCN(CCCCCCCCCCCCCCCCCC)C(=O)c1cc(NS(=O)(=O)c2ccc(NN)nc2)c2ccccc2c1O`, the melting point was 96 to 98 °C. With `Cc1nn(-c2ccc(C(F)(F)F)cn2)cc1CCCOc1cccc(OC(C)(C)C(=O)O)c1` the melting point was 107 to 108 °C. Work on `CCCCCCCCCCCCCC(=O)Nc1ccc(Cl)c(NC2=NN(c3c(Cl)cc(Cl)cc3Cl)C(=O)C2SCCCCOc2cccc(C)c2)c1` (configuration not stated) yielded a melting point of 123 to 124 °C. With `Cc1ccccc1CNC(=O)[C@H]1N(C(=O)[C@@H](O)[C@H](Cc2ccccc2)NC(=O)C(C)C(C)C(=O)OC[C@H]2O[C@@H](n3cc(C)c(=O)[nH]c3=O)CC2N=[N+]=[N-])CSC1(C)C` (some centres not stated) the melting point was 116 to 118 °C. With `CCCCCCCCCCCCCCCCCCOc1ccc(OCCCOc2ccc(OCc3ccccc3)cc2)c(C(=O)N(CC(=O)OCC)CC(=O)OCC)c1` the melting point was 54 to 55 °C. With `Cc1c(Cc2ccccc2)sc2nc(N)[nH]c(=O)c12` the melting point was 292 to 294 °C. `CCCCCC/C(=C\C=C\C(=O)O)c1ccc(OC)cc1` showed a melting point of 88 to 89.5 °C. With `Cc1cc(CNC(=O)c2nc(N3CCOCC3)n(C)c(=O)c2O)ccc1F` the melting point was 182 to 185 °C. With `COc1cc(OC)c(/C=C/C(c2ccc(OC)c(NC(=O)C(F)(F)F)c2)S(=O)(=O)C(/C=C/c2c(OC)cc(OC)cc2OC)c2ccc(OC)c(NC(=O)C(F)(F)F)c2)c(OC)c1` (configuration not stated) the melting point was 179 to 180 °C. In the case of `Cc1c(O)cc(C(C)(C)C)c(O)c1C(=O)Nc1ccc(S(=O)(=O)C(F)(F)F)cc1Cl`, the melting point is reported as 163 to 166 °C. Work on `[C-]#[N+]CC(=O)N(c1ccccc1)C(C)C` yielded a melting point of 80 to 82 °C. In the case of `Oc1ccccc1N1CCOCC1`, the melting point is reported as 128 °C. Work on `CCCCCCCCCCCCCCCc1cccc(Oc2ccccc2SSc2ccccc2Oc2cccc(CCCCCCCCCCCCCCC)c2)c1` yielded a melting point of 89 to 90 °C. Work on `COC(=O)COC1C(NC(C)=O)C(OCc2ccccc2)OC(COCc2ccccc2)C1OC1(N)OC(COCc2ccccc2)C(OCc2ccccc2)C(OCc2ccccc2)C1C(=O)OCC(Cl)(Cl)Cl` (configuration not stated) yielded a melting point of 176 to 178 °C. Molecule `CC[C@H](C)CNC(=O)[C@@H](C[C@H](O)[C@H](CC1CCCCC1)NC(=O)[C@H](Cc1cscn1)NC(=O)[C@@H](CC(=O)N1CCOCC1)Cc1cccc2ccccc12)C(C)(C)O` has a melting point of 102 to 105 °C. `CCCCC(CC)CN1C(=O)C(=Cc2cc3c(s2)c2sc(-c4ccc(N(c5ccccc5)c5ccccc5)cc4)cc2n3CC(CC)CCCC)C(C)=C(C#N)C1=O` (configuration not stated) showed a melting point of 137 to 140 °C. `FC(F)(F)C(F)(F)C(F)(F)C(F)(F)C(F)(F)C(F)(F)CCc1ccc(P(c2ccccc2)c2ccc(CCC(F)(F)C(F)(F)C(F)(F)C(F)(F)C(F)(F)C(F)(F)F)cc2)cc1` showed a melting point of 42.1 to 43.1 °C. Molecule `Cc1cc(C)c2cccc(OCc3c(Cl)ccc(S(=O)(=O)N4CCC[C@H]4C(=O)NC4CCN(C(=O)CCN(C=NC(=O)OC(C)(C)C)NC(=O)OC(C)(C)C)CC4)c3Cl)c2n1` has a melting point of 115 to 117 °C. With `CCCCCCCCCCCCCCCCCCCCCCCC[C@@H](C(=O)O)[C@H](O)CCCCCCCCCCCCCCC[C@@H]1C[C@@H]1CCCCCCCCCCCCCCCCCCC(=O)[C@@H](C)CCCCCCCCCCCCCCCCCC` the melting point was 66 to 68 °C. With `CCCc1c(CC[Si](Cl)(Cl)Cl)c(CC[Si](Cl)(Cl)Cl)c(CC[Si](Cl)(Cl)Cl)c(CC[Si](Cl)(Cl)Cl)c1CC[Si](Cl)(Cl)Cl` the melting point was 211 to 216 °C. With `C[C@H](Cc1ccc(OCCCN2CCCCC2)c(OCCCN2CCCCC2)c1)[C@@H](C)Cc1ccc(OCCCN2CCCCC2)c(OCCCN2CCCCC2)c1` the melting point was 84 to 86 °C. Work on `CC(C)(Cc1ccc(S(=O)(=O)CCc2c(CCNS(=O)(=O)Cc3ccc(Cl)c(Cl)c3)n(C(c3ccccc3)c3ccccc3)c3ccc(Cl)cc23)cc1)C(=O)O` yielded a melting point of 207 to 208 °C. `CC(=O)C1CCC2C3CCC4CC(O)(C#Cc5cccnc5)CCC4(C)C3CCC12C` (configuration not stated) showed a melting point of 230 to 235 °C. With `CCCc1[nH]c2ccccc2c1C1(c2ccc(N(CC)CC)cc2OCCOCCOc2cc(N(CC)CC)ccc2C2(c3c(CCC)[nH]c4ccccc34)OC(=O)c3ccccc32)OC(=O)c2ccccc21` (configuration not stated) the melting point was 191 to 194 °C. For `O=C(Oc1c(I)cc(I)cc1I)C(F)(F)C(F)(F)C(F)(F)C(F)(F)C(F)(F)C(F)(F)F`, the melting point was 71 to 73 °C. For `C=CCCC(=O)Nc1c(I)c(C(=O)NC(COC(C)=O)COC(C)=O)c(I)c(C(=O)NC(COC(C)=O)COC(C)=O)c1I`, the melting point was 162 to 164 °C. For `CN(C)CCCN1c2ccccc2Sc2ccc(Cl)cc21`, the melting point was 57 °C. For `COc1cccc(Sc2cc3c(cc2Sc2cccc(OC)c2)C(=O)c2c(c(O)c4cc(Sc5cccc(OC)c5)c(Sc5cccc(OC)c5)cc4c2O)C3=O)c1`, the melting point was 287 to 292 °C. Work on `COC(=O)Cc1ccc(C(NC(=O)CCC(Cc2ccccc2)(NC(=O)c2ccc(N(C)C3CCc4cc5nc(C)n(COC(=O)C(C)(C)C)c(=O)c5cc43)cc2F)C(=O)O)C(=O)OC)cc1` (configuration not stated) yielded a melting point of 85 to 90 °C. Work on `CCc1nc(OC)c(NC(=O)N2CCN(c3cc(OC)c(OC)c(OC)c3)CC2)cc1C(=O)NC(C)C(=O)Nc1cc(CO)cc(Nc2c3ccccc3nc3ccccc23)c1` (configuration not stated) yielded a melting point of 205 to 207 °C. For `CCCCCCCCCS(=O)(=O)c1c(S(=O)(=O)CCCCCCCCC)c(S(=O)(=O)CCCCCCCCC)c(S(=O)(=O)CCCCCCCCC)c(S(=O)(=O)CCCCCCCCC)c1S(=O)(=O)CCCCCCCCC`, the melting point was 95 °C. Work on `O=C(O)Cc1cc(I)c(Oc2cc(I)c(OCC3CO3)c(I)c2)c(I)c1` (configuration not stated) yielded a melting point of 176 °C. Molecule `CCc1nc2c(N)nc3cc(OCCCc4cccnc4)ccc3c2s1` has a melting point of 172 to 173 °C. For `CCC(C)(C)c1ccc(OCC(=O)Nc2cccc(C(=O)Nc3[nH]n(-c4c(Cl)cc(Cl)cc4Cl)c(=O)c3OC(=O)Nc3ccccc3)c2)c(C(C)(C)CC)c1`, the melting point was 72 to 77 °C. In the case of `CCCCCCCCCCCCCC=CC(OC(=O)c1ccccc1)C(COC1OC(CO)C(OCCC(C(=O)OC(C)(C)C)C(=O)OC(C)(C)C)C(O)C1O)NC(=O)CCCCCCCCCCCCCCC` (configuration not stated), the melting point is reported as 48 to 50 °C. `O=C(O)CCOC1COCCCC=CC2CC2(C(=O)NS(=O)(=O)C2CC2)NC(=O)C2(NC(=O)Nc3ccccc3)CC(OC(=O)N(CCC(=O)O)c3ccccc3)CN2C1=O` (configuration not stated) showed a melting point of 142 to 144 °C. Molecule `CCOC(=O)C(C)OC1C(Cl)=C(OC2=C(Cl)C(OC(C)C(=O)OCC)C(c3ccccc3C(F)(F)F)([N+](=O)[O-])C=C2)C=CC1(c1ccccc1C(F)(F)F)[N+](=O)[O-]` (configuration not stated) has a melting point of 71 to 74 °C. `CCn1cc(C(=O)N[C@@H]2C(=O)N[C@@H]2C(=O)OC)c(=O)c2ccc(C)nc21` (relative stereo) gave a melting point of 223 to 224 °C.
